According to patent US6514692B2, “Method for treatment of immunodeficiency virus infection” (priority 1996, dated 2003):
“And” between values parts separate entries of the source, which are not always exact repeats. Equal values may be shown once. Read-outs that look alike come from different tables or passages of the source. Where no end group is shown, it is not given here.

Experiments:
SK1 isolate of HIV-1 = system: SK1 isolate of HIV-1
Text: (§1) ME180 cells, a cervical epithelial cell line, were obtained from the American Type Culture Collection. These cells were thawed from liquid nitrogen and grown in RPMI 1640 medium supplemented with 10t fetal bovine serum, glutamine and antibiotics. The cells were adherent and were trypsinized (0.5% trypsin in HBSS) to remove them from the flask for passaging and use in assays. For use in the microtiter transmission inhibition assay, ME180 cells were trypsinized, washed and seeded in 96-well flat bottom microtiter plates (COSTAR) at a density of 5×10^3 cells per well. The cells were incubated at 37° C. for 24 hours prior to the tart of the assay. H9 cells chronically infected with he SK1 isolate of HIV-1 were treated with 200 μg/ml mitomycin C for 60 minutes at 37° C. After treatment the cells were washed three times with tissue culture medium. The chronically infected lymphocytes were added to each well at a density of 2×10^4 cells per well. The concentration of mitomycin C used in the treatment of the lymphocytes was chosen to allow lymphocyte survival for the period of time required to transmit virus to the uninfected ME180 cells, but to die prior to the time of assay so as not to contribute to the p24 signal used as the endpoint (see below). In the transmission assay the lytic peptides D4E1 and D2A21, with and without 150 μg/ml pig mucin, were added prior to the addition of chronically infected cells or were mixed with the chronically infected cells prior to their addition to the monolayer of ME180 cells. Mucin was included because it is an abundant constituent of the normal vaginal secretions of a human being, thus any chemotherapeutic agent targeting HIV should be active in its presence if it is to have clinical value. […] The lymphocytes and peptide were co-cultured with the ME180 cells for 6 hours and then removed by washing the ME180 monolayer four times with PBS. The plate was then incubated at 37° C. for six days. Medium was removed and changed every 48 hours during the incubation stage. No further peptide was added after the initial dose. At six days post-co-cultivation, the supernatant was removed from the wells and evaluated for the quantity of p24 antigen by ELISA. The ELISA was performed according to the manufacturer's recommendations. The amount of virus production in wells treated with various concentrations of the peptides was evaluated with appropriate cell and virus controls. Data are reported as a percent of virus control at each drug concentration. Linear regression analysis was used to calculate the […] and IC95 concentrations of the transmission inhibitor. […] TI represents the toxicity index, which is the ratio of the TC50/IC50, and is an indication of the relative concentrations window that exists between efficacy and toxicity.

[1] = toxicity (XTT) in transmission inhibition assay; conditions: human, ME180 cells
Text: as §1

ME180 cells = assay: toxicity (XTT) in transmission inhibition assay; conditions: for TOXICITY VALUES (XTT), single samples: samples 1-3; for TC50 (concentration at which 50% of cells are eliminated): interpolation from % CC
Text: as §1

[2] = 0.32 μg/ml, with 150 μg/ml pig mucin
[3] = 1 μg/ml, with 150 μg/ml pig mucin
[4] = 3.2 μg/ml, with 150 μg/ml pig mucin
[5] = 10 μg/ml, with 150 μg/ml pig mucin
[6] = 32 μg/ml, with 150 μg/ml pig mucin
[7] = 100 μg/ml, with 150 μg/ml pig mucin

Sequence: FAKKFAKKFKKFAKKFAKFAFAF [D2A21]
- % VC (p24, percent of virus control) (SK1 isolate of HIV-1; 0.32 μg/ml, no mucin): 81.8%
- % VC (p24, percent of virus control) (SK1 isolate of HIV-1; [2]): 33.7%
- % VC (p24, percent of virus control) (SK1 isolate of HIV-1; 1 μg/ml, no mucin): 67.3%
- % VC (p24, percent of virus control) (SK1 isolate of HIV-1; [3]): 27.7%
- % VC (p24, percent of virus control) (SK1 isolate of HIV-1; 3.2 μg/ml, no mucin): 40.6%
- % VC (p24, percent of virus control) (SK1 isolate of HIV-1; [4]): 18.8%
- % VC (p24, percent of virus control) (SK1 isolate of HIV-1; 10 μg/ml, no mucin): 27.4%
- % VC (p24, percent of virus control) (SK1 isolate of HIV-1; [5]): 10.1%
- % VC (p24, percent of virus control) (SK1 isolate of HIV-1; 32 μg/ml, no mucin): 2.2%
- % VC (p24, percent of virus control) (SK1 isolate of HIV-1; [6]): 0.0%
- % VC (p24, percent of virus control) (SK1 isolate of HIV-1; 100 μg/ml, no mucin): 0.0%
- TI (toxicity index, TC50/IC50) (SK1 isolate of HIV-1; no mucin): TI = 15
- TI (toxicity index, TC50/IC50) (SK1 isolate of HIV-1; with 150 μg/ml pig mucin): TI = 139
- viability at 6 h, 0.32 µg/mL [1]: 97.6%
- viability at 6 h, 1 µg/mL [1]: 100%
- viability at 6 h, 3.2 µg/mL [1]: 97.6%
- viability at 6 h, 10 µg/mL [1]: 95.9%
- viability at 6 h, 32 µg/mL [1]: 61%
- viability at 6 h, 100 µg/mL [1]: 16.4%
- TOXICITY VALUES (XTT), MEAN (ME180 cells; 0.32 μg/ml, no mucin): 0.515 O.D. @ 450/650 nm
- TOXICITY VALUES (XTT), single samples (ME180 cells; 0.32 μg/ml, no mucin): 0.541 O.D. @ 450/650 nm and 0.497 O.D. @ 450/650 nm and 0.506 O.D. @ 450/650 nm
- % CC (XTT, percent of cell control) (ME180 cells; [2]): 97.6%
- TOXICITY VALUES (XTT), MEAN (ME180 cells; [2]): 0.515 O.D. @ 450/650 nm
- TOXICITY VALUES (XTT), single samples (ME180 cells; [2]): 0.541 O.D. @ 450/650 nm and 0.497 O.D. @ 450/650 nm and 0.506 O.D. @ 450/650 nm
- TOXICITY VALUES (XTT), MEAN (ME180 cells; 1 μg/ml, no mucin): 0.528 O.D. @ 450/650 nm
- TOXICITY VALUES (XTT), single samples (ME180 cells; 1 μg/ml, no mucin): 0.550 O.D. @ 450/650 nm and 0.514 O.D. @ 450/650 nm and 0.520 O.D. @ 450/650 nm
- % CC (XTT, percent of cell control) (ME180 cells; [3]): 100.1%
- TOXICITY VALUES (XTT), MEAN (ME180 cells; [3]): 0.528 O.D. @ 450/650 nm
- TOXICITY VALUES (XTT), single samples (ME180 cells; [3]): 0.550 O.D. @ 450/650 nm and 0.514 O.D. @ 450/650 nm and 0.520 O.D. @ 450/650 nm
- TOXICITY VALUES (XTT), MEAN (ME180 cells; 3.2 μg/ml, no mucin): 0.515 O.D. @ 450/650 nm
- TOXICITY VALUES (XTT), single samples (ME180 cells; 3.2 μg/ml, no mucin): 0.525 O.D. @ 450/650 nm and 0.513 O.D. @ 450/650 nm and 0.506 O.D. @ 450/650 nm
- % CC (XTT, percent of cell control) (ME180 cells; [4]): 97.6%
- TOXICITY VALUES (XTT), MEAN (ME180 cells; [4]): 0.515 O.D. @ 450/650 nm
- TOXICITY VALUES (XTT), single samples (ME180 cells; [4]): 0.525 O.D. @ 450/650 nm and 0.513 O.D. @ 450/650 nm and 0.506 O.D. @ 450/650 nm
- TOXICITY VALUES (XTT), MEAN (ME180 cells; 10 μg/ml, no mucin): 0.506 O.D. @ 450/650 nm
- TOXICITY VALUES (XTT), single samples (ME180 cells; 10 μg/ml, no mucin): 0.518 O.D. @ 450/650 nm and 0.506 O.D. @ 450/650 nm and 0.491 O.D. @ 450/650 nm
- % CC (XTT, percent of cell control) (ME180 cells; [5]): 95.9%
- TOXICITY VALUES (XTT), MEAN (ME180 cells; [5]): 0.506 O.D. @ 450/650 nm
- TOXICITY VALUES (XTT), single samples (ME180 cells; [5]): 0.518 O.D. @ 450/650 nm and 0.508 O.D. @ 450/650 nm and 0.491 O.D. @ 450/650 nm
- TOXICITY VALUES (XTT), MEAN (ME180 cells; 32 μg/ml, no mucin): 0.322 O.D. @ 450/650 nm
- TOXICITY VALUES (XTT), single samples (ME180 cells; 32 μg/ml, no mucin): 0.342 O.D. @ 450/650 nm and 0.315 O.D. @ 450/650 nm and 0.308 O.D. @ 450/650 nm
- % CC (XTT, percent of cell control) (ME180 cells; [6]): 61.04%
- TOXICITY VALUES (XTT), MEAN (ME180 cells; [6]): 0.322 O.D. @ 450/650 nm
- TOXICITY VALUES (XTT), single samples (ME180 cells; [6]): 0.342 O.D. @ 450/650 nm and 0.315 O.D. @ 450/650 nm and 0.308 O.D. @ 450/650 nm
- TOXICITY VALUES (XTT), MEAN (ME180 cells; 100 μg/ml, no mucin): 0.087 O.D. @ 450/650 nm
- TOXICITY VALUES (XTT), single samples (ME180 cells; 100 μg/ml, no mucin): 0.061 O.D. @ 450/650 nm and 0.083 O.D. @ 450/650 nm and 0.096 O.D. @ 450/650 nm
- % CC (XTT, percent of cell control) (ME180 cells; [7]): 16.4%
- TOXICITY VALUES (XTT), MEAN (ME180 cells; [7]): 0.087 O.D. @ 450/650 nm
- TOXICITY VALUES (XTT), single samples (ME180 cells; [7]): 0.081 O.D. @ 450/650 nm and 0.083 O.D. @ 450/650 nm and 0.096 O.D. @ 450/650 nm
- TC50 (concentration at which 50% of cells are eliminated) (ME180 cells; no mucin): TC50 = 39 μg/ml
- TC50 (concentration at which 50% of cells are eliminated) (ME180 cells; with 150 μg/ml pig mucin): TC50 39 μg/ml
